Data reported in article PMC8997399, “High-Throughput Screening to Identify Inhibitors of Plasmodium falciparum Importin α” (Cells, 2022).
Read-outs that look alike come from different tables or passages of the source.

Assays:
PfIMPα = PfIMPα (Plasmodium falciparum, UniProt Q8IAW0); test: Thermostability assay (TSA), PfIMPα; type: binding
Protocol: (§1) The effect of inhibitory compounds on IMPα thermostability was tested, as previously, using the fluorescent dye SYPRO Orange (Thermo Fisher Scientific, Waltham, MA, USA) and the Qiagen Rotor-Gene Q6 plex instrument programmed in the melt curve mode. Increasing concentrations of compound in 0.5 µL DMSO were added to 24.5 µL recombinant protein (2 µM) in phosphate-buffered saline (PBS). Next, 1 µL of SYPRO Orange dye was added, the reaction mixture heated at 0.5 °C/min from 27 °C to 90 °C, and the fluorescence intensity caused by the SYPRO Orange binding to the proteins monitored (excitation/emission: 530/555 nm). Tm is the temperature at which 50% of the protein is unfolded.

TgIMPα = TgIMPα (Toxoplasma gondii, UniProt A0A125YID0); test: Thermostability assay (TSA), TgIMPα; type: binding
TgIMPα, sequence (A0A125YID0 entry or part of it): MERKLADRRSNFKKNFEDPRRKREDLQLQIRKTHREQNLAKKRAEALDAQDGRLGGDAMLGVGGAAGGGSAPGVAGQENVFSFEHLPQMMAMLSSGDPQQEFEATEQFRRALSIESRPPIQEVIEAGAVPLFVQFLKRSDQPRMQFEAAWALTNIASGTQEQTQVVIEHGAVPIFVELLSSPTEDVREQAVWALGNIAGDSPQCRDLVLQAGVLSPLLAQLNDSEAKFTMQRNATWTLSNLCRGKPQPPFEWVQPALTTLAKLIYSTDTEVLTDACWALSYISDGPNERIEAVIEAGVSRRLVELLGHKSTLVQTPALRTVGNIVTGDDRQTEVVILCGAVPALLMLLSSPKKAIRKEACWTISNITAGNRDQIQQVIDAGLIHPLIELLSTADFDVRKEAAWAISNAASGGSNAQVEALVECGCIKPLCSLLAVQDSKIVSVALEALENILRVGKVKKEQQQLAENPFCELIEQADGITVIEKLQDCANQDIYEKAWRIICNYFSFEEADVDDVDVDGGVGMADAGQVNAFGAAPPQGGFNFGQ
Protocol: as §1

P. falciparum 3D7 strain = test: P. falciparum growth inhibition assay (HRP2 sandwich ELISA); type: cell-based, Plasmodium falciparum
Protocol: Red blood cells (RBCs) were derived from blood from volunteers (approval from the Institute Ethics Committee, IIT Bombay, Mumbai, India) by density gradient centrifugation. Aliquots of cryopreserved P. falciparum 3D7 strain in human red blood cells (RBCs—3% hematocrit, <5% parasitemia) were thawed and cultured using RPMI (Roswell Park Memorial Institute) 1640 medium supplemented with 0.5% Albumax (Gibco^TM, Waltham, MA, USA), 50 mg/L hypoxanthine (Sigma-Aldrich, St Louis, MO, USA), 2 g/L D-glucose (Sigma-Aldrich, St Louis, MO, USA), 2 g/L sodium bicarbonate (Sigma-Aldrich, St Louis, MO, USA), and 56 mg/L of gentamicin (Abbott, Chicago, IL, USA) at 37 °C in 5% CO2 in a humidified incubator according to the standard procedures; suspension cultures were maintained at 3% hematocrit and <5% parasitemia, by adding a fresh medium daily and a regular addition of fresh human RBCs.
Before growth inhibition assays, cultures were synchronized using 5% D-sorbitol (Sigma-Aldrich, St Louis, MO, USA) predominantly to obtain the ring stage of the P. falciparum life cycle.
Growth assays in the absence and presence of inhibitors were performed using the Histidine–Rich Protein 2 (HRP2) sandwich horseradish peroxidase-linked immunosorbent assay to measure HRP2 protein levels as an indicator of growth. Briefly, 25 µL of compound was added to 96-well microculture plates (Eppendorf, Hamburg, Germany) of 0.25% (with fresh RBCs), and added at a hematocrit of 3%. The plates were then incubated for 72 h at 37 °C in a humidified incubator, sparged with 5% CO2. 72 h later, the plates were subjected to freeze–thaw to achieve hemolysis, and samples diluted 200-fold in H2O in transferring to another plate. A day prior to analysis, 96-well ELISA plates (Sigma-Aldrich, St Louis, MO, USA) were coated overnight at 4 °C with 100 µL of 1 μg/mL IgM capture antibody MPFM-55A (Immunology Consultants Laboratory, Portland, OR, USA) specific for P. falciparum HRP2. After blocking for 2 h at room temperature with 2% BSA in PBS, diluted samples were added to the wells, followed by incubation for 2 h, then the plates were washed three times with 0.05% Tween 20 in PBS. Next, 100 µL of the secondary antibody MPFG-55P (Immunology Consultants Laboratory, Portland, OR, USA) conjugated with horseradish peroxidase (0.25 μg/mL in PBS with 2% BSA) was then added to each well, and the plates incubated for 1 h at room temperature, prior to being washed three times, and 100 µL 3,3′, 5,5′ tetramethylbenzidine substrate (BD Biosciences, San Jose, CA, USA) being added. After 10 min incubation in the dark, 50 µL of 1 M H2SO4 was added and the absorbance was read at 450 nm on a Multiscan™ FC Microplate Spectrophotometer (Thermo Fisher Scientific, Waltham, MA, USA).

[1] = test system: T. gondii RH strain expressing the luciferase reporter (RH-Fluc); test: T. gondii tachyzoite growth inhibition assay (RH-Fluc luciferase); type: cell-based, Toxoplasma gondii; conditions: for T. gondii parasite killing: at 2 µM or less (Figure 7); for IC50: read-out: IC50 T. gondii
Description: T. gondii RH strain expressing the luciferase reporter (RH-Fluc) was derived to assess the effect of the inhibitors on growth. Briefly, plasmid pCTG-EGFP [42] was modified by replacing the coding sequence of EGFP with that of the firefly luciferase reporter, using restriction enzymes BglII and PstI (Thermo Fisher Scientific, Waltham, MA, USA). The resultant plasmid, pCTG-Fluc, expressing firefly luciferase constitutively under the control of the T. gondii TubulinA promoter, was electroporated into the T. gondii RH strain [43, 44] using a Bio-Rad GenePulser Xcell system (1500 V, 50 Ω and 25 µF) along with restriction enzyme NotI to initiate RE-Mediated Integration (REMI) of the linearized plasmid into the genome. The resultant stable T. gondii line expressing the luciferase reporter was selected for resistance to 20 µM chloramphenicol (encoded by the plasmid pCTG), and dilution cloning was performed to ultimately identify the clone (RH-Fluc) with the highest luciferase activity (c. 4 × 10^7 RLU from 10^7 parasites) used for growth assays. T. gondii tachyzoites were maintained and cultured at 37 °C in 5% CO2 in a humidified incubator in primary human foreskin fibroblasts (HFF, ATCC); HFF cells were maintained in Dulbecco’s modified Eagle medium (DMEM) (Gibco^TM, Waltham, MA, USA) supplemented with 3.7 g/L sodium bicarbonate and 2.38 g/L HEPES, 10% Cosmic Calf serum (Hyclone^TM, Logan, UT, USA) and 20 mg/L gentamicin [47, 48].
Growth inhibition was assessed by luminescence measurements as described. Briefly, 100 μL of culture medium with or without inhibitors was added to confluent monolayers of HFF cells grown in 96-well treated culture plates (Eppendorf, Hamburg, Germany), followed by 100 µL of DMEM containing 5000 parasites. After 48 h, 150 µL of the culture media was discarded from each well without aspirating any parasites, and 10 µL lysis buffer was added to lyse the parasites, followed by 50 μL of 2× luciferase assay reagent (Promega, Madison, WI, USA). Luminescence was measured directly for 10 s using a Varioskan™ LUX multimode microplate reader (Thermo Fisher Scientific, Waltham, MA, USA).

[2] = concentrations higher than 20 µM
[3] = 10 µM, 72 h, 0.25% parasitemia (Figure 5A)
[4] = 10 μM, 48 h, HFF cells infected with RH-Fluc (Figure 5B)
[5] = parasites in culture, 48 h, pooled, mean ± SD (n = 3) (Table 3)
[6] = single typical experiment (Figure 7), 48 h
[7] = concentrations of 75 µM or higher

PfIMPα, sequence (Q8IAW0 entry or part of it): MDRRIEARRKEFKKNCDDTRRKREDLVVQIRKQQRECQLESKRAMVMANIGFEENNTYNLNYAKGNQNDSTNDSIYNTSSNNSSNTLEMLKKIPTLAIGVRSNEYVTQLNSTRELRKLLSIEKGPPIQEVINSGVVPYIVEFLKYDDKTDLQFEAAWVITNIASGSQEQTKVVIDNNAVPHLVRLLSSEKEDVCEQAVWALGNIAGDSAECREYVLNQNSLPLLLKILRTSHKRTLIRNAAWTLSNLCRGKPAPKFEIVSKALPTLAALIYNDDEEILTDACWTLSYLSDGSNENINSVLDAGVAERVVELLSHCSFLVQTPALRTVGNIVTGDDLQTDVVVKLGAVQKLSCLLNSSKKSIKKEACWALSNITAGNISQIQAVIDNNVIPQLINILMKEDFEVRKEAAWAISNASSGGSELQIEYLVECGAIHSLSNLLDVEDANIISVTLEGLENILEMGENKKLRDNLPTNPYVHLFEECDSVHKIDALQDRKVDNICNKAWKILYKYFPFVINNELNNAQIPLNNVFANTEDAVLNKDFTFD

What does the source list for `CC(C)(C)c1ccc(S(=O)(=O)/C=C/C#N)cc1` [Bay 11-7085]?
increase of stability of PfIMPα (PfIMPα; [2]): 9–11 °C; thermostability of PfIMPα reached (PfIMPα; [2]): 48–50 °C; reduction of stability of PfIMPα (PfIMPα; concentrations up to 10 µM): 6 °C; thermostability of PfIMPα reached (PfIMPα; concentrations up to 10 µM): 39 °C; TgIMPα stable only up to (TgIMPα; 10–20 µM): 30–36 °C; reduction of thermostability of TgIMPα (TgIMPα; 10–20 µM): 9–15 °C; inhibition of P. falciparum growth (HRP2 levels) (P. falciparum 3D7 strain; [3]): ~20%; IC50 (P. falciparum 3D7 strain; parasites in culture, 72 h, pooled, mean ± SD (n = 3)): > 10 µM; reduction in luciferase activity, indicative of T. gondii growth inhibition [1, 4]: > 50%; T. gondii parasite killing [1]: ≥ 60%; IC50 [1, 5]: 2.7 ± 0.7 µM; IC50 [1, 6]: 2 µM

For `O=C(/C=C/c1ccc(O)c(O)c1)OCCc1ccccc1` [CAPE, Caffeic acid phenethyl ester], which “increase in thermostability of PfIMPα” value (PfIMPα; [7]) is on record?
Its value is 2 °C.

What about the “thermostability of PfIMPα reached” value (PfIMPα; [7]) of the same compound?
The value was 47 °C.

And the “change in stability of TgIMPα” value (TgIMPα; up to 100 µM)?
Its value is “did not elicit any marked change in stability”.

What about the IC50 (P. falciparum 3D7 strain; Plasmodium falciparum, 3D7, 72 h, parasites in culture, pooled, mean ± SD (n = 3)) of the same compound?
The IC50 was 7.5 ± 1.1 µM.

And the IC50 (P. falciparum 3D7 strain; Plasmodium falciparum, 3D7, 72 h, single typical experiment (Figure 6))?
The IC50 was 6.5 µM.

What about the inhibition at 10 µM (P. falciparum 3D7 strain; Plasmodium falciparum, 3D7, 10 µM, 72 h, 0.25% parasitemia (Figure 5A), read-out: inhibition of P. falciparum growth (HRP2 levels)) of the same compound?
Its inhibition at 10 µM is greater than 50%.

And the inhibition at 10 µM ([1]; Toxoplasma gondii, 10 μM, 48 h, HFF cells infected with RH-Fluc (Figure 5B), read-out: reduction in luciferase activity, indicative of T. gondii growth inhibition)?
The inhibition at 10 µM was 5%.

And the IC50 ([1]; Toxoplasma gondii, parasites in culture, 48 h, pooled, mean ± SD (n = 3) (Table 3))?
Its IC50 is greater than 10 µM.

Which results are given for `CC(=O)OC[C@H]1O[C@@H]([S-])[C@H](OC(C)=O)[C@@H](OC(C)=O)[C@@H]1OC(C)=O.CCP(CC)CC.[Au+]` [auranofin]?
PfIMPα stable only up to (PfIMPα; concentrations as low as 5 μM): 32–35 °C; reduction of thermostability of PfIMPα (PfIMPα; concentrations as low as 5 μM): 12–15 °C; TgIMPα stable only up to (TgIMPα; concentrations as low as 5 μM): 32–35 °C; reduction of thermostability of TgIMPα (TgIMPα; concentrations as low as 5 μM): 12–15 °C; inhibition of P. falciparum growth (HRP2 levels) (P. falciparum 3D7 strain; [3]): > 50%; reduction in luciferase activity, indicative of T. gondii growth inhibition [1, 4]: > 50%; T. gondii parasite killing [1]: ≥ 60%; IC50 [1, 5]: 2.3 ± 0.8 µM; IC50 [1, 6]: 1.9 µM
